Literature values, collected in US20190151262A1, “USE OF N-ACETYLCYSTEINE AMIDE FOR DECREASING INTRACRANIAL PRESSURE” (priority 2013, published 2019).

System: intra-cranial pressure
Conditions: previously tried anti-oxidant; Thomale et al. Intensive Care Med. 32:149-155 (2006)

SMILES: CC(=O)N[C@@H](CS)C(=O)O [NAC, n-acetylcysteine]
- decrease of intra-cranial pressure: no success
